B1: human CETP: full-length human CETP (SEQ ID NO:7) purified from conditioned media of a huCETP transformed CHO cell line (protein)
chain: CSKGTSHEAGIVCRITKPALLVLNHETAKVIQTAFQRASYPDITGEKAMMLLGQVKYGLHNIQISHLSIASSQVELVEAKSIDVSIQNVSVVFKGTLKYGYTTAWWLGIDQSIDFEIDSAIDLQINTQLTCDSGRVRTDAPDCYLSFHKLLLHLQGEREPGWIKQLFTNFISFTLKLVLKGQICKEINVISNIMADFVQTRAASILSDGDIGVDISLTGDPVITASYLESHHKGHFIYKNVSEDLPLPTFSPTLLGDSRMLYFWFSERVFHSLAKVAFQDGRLMLSLMGDEFKAVLETWGFNTNQEIFQEVVGGFPSQAQVTVHCLKMPKISCQNKGVVVNSSVMVKFLFPRPDQQHSVAYTFEEDIVTTVQASYSKKKLFLSLLDFQITPKTVSNLTESSSESIQSFLQSMITAVGIPEVMSRLEVVFTALMNSKGVSLFDIINPEIITRDGFLLLQMDFGFPEHLLVDFLQSLS
modifications: Human; PEPTIDE (1)..(476) Amino aid sequence of full-length mature human CETP protein

How the values were obtained:
human CETP = test: ELISA anti-huCETP antibody titers in sera of immunized human CETP transgenic mice; settings: in vivo; for average anti-huCETP titer: sc
[1] = system: serum HDL-cholesterol (HDLc); parameters: species or system human CETP transgenic mice; settings: in vivo
serum CETP activity = test: Serum CETP activity (fluorescent cholesteryl ester transfer assay) in immunized human CETP transgenic mice; settings: in vivo
[2] = system: endogenous serum CETP activity; test: Change in endogenous serum CETP activity in rabbits immunized with full-length human CETP; settings: week 12 post-injection vs week -1 pre-injection, 0.2 mg huCETP in CFA, boosters in IFA; for increase in CETP activity following vaccination: Rabbit #1

| Molecule | anti-huCETP titer lower than those of the CETi-1 and CETi-2 groups (human CETP) | average anti-huCETP titer (human CETP) [OD] | change in serum HDLc levels in contrast to control group (in words) [1] | effect on serum CETP activity (in words) (serum CETP activity) | increase in CETP activity following vaccination [2] | increase in CETP activity following vaccination ([2]; listed as whole human CETP) [%] | decrease in CETP activity following vaccination ([2]; Rabbit #11, listed as whole human CETP) [%] |
| --- | --- | --- | --- | --- | --- | --- | --- |
| SKGTSHEAGIVCRITKPALLQYIKANSKFIGITE [CETi-2.1] | approx. 30% |  |  |  |  |  |  |
| CQYIKANSKFIGITEFGFPEHLLVDFLQSLS [CETi-1, reference compound] |  | ~0.750 | reduction | appeared to elevate CETP activity |  |  |  |
| CSKGTSHEAGIVCRITKPALLQYIKANSKFIGITE [CETi-2] |  | ~0.750 | reduction | no effect on average |  |  |  |
| B1 |  |  |  |  | +85% | 85 | 77 |

Reference: US20060276400A1, “Modulation of cholesteryl ester transfer protein (CETP) activity” (priority 2005, published 2006)
